Reference: patent US7259140B2, “Heparin-binding peptides and uses thereof” (Thomas Jefferson University, priority 2003, dated 2007)
Bridge positions count the residues as written; N and C are the ends. Ends that are not written are not given here. Peptide text beside a SMILES is read from it.

Assays:
[1] = tested on: anti-Factor Xa Activity of Unfractionated Heparin; assay: Anti-Factor Xa assay: neutralization of unfractionated heparin in citrate or plasma in vitro; type: biochemical, human; details: for Unfractionated Heparin Neutralized: UFH 0.7 U/ml
Method: The ability of peptides such as (ARKKAAKA)3VLVLVLVL (SEQ ID NO:5) to neutralize the anti-Factor Xa activity of UFH and LMWH in vitro was tested using the Stachrom Heparin kit (Diagnostica Stago), a standard hematology laboratory assay used to measure the anti-Factor Xa activity of heparin. The assay was performed using the low molecular weight heparin enoxaparin sodium (Lovenox®, Aventis Pharmaceuticals, Inc.), unfractionated heparin (UFH), or the non-heparin glycosaminoglycan danaparoid sodium (Orgaran®, Organon Inc., West Orange, N.J.) in 0.32% citrate or in plasma anticoagulated with 0.32% citrate. Enoxaparin is commonly used clinically as a low molecular weight heparin (LMWH). Danaparoid is commonly used clinically as a non-heparin glycosaminoglycan anticoagulant. Currently, the only FDA approved drug to target UFH is protamine, which is not effective in vivo against LMWH or a non-heparin glycosaminoglycan such as danaparoid. Buffer and ATIII are added to form the heparin/ATIII complex, peptide is added, then Factor Xa, reporter dye substrate for Factor Xa activity, and stop solution, and the dye concentration is read at 405 nm. The absorbance of the dye increases with increasing Factor Xa activity, and thus is inversely proportional to the heparin (anti-Factor Xa activity) concentration. Peptides were tested in plasma obtained from three volunteers (A, B, and C). Platelet function inhibitors PG12 and theophylline were added to the blood immediately upon collection. […]

[2] = Affinity coelectrophoresis (ACE) of peptide binding to radiolabeled low Mr heparin; set-up: species or system pig; details: for Kd: pH 7.0, mean and standard deviation of four assays, read-out: Kd (nM), affinity for low molecular weight heparin
Source text: Preparation of Radiolabeled Heparin. Whole heparin from pig intestinal mucosa (Sigma) was tyramine end-labeled and radiolabeled with Na^125I (Amersham, Pharmacia Biotech, Inc., Piscataway, N.J.) to an average specific activity≅1.0×10^7 CPM/μg as described (San Antonio, J. D., et al., Biochemistry, 32:4746-4755, 1993). Radiolabeled heparin was fractionated on Sephadex G-100 (Bio-Rad Laboratories, Hercules, Calif.) and the final≅12% of material to elute was retained as the low Mr material of ≦6,000 (Jordan, R., D. Beeler, and R. Rosenberg, J. Biol. Chem., 254:2902-2913, 1979; Laurent, T. C., et al., Biochem. J., 175:691-701, 1978).
Analysis of Peptide-Heparin Interactions by Affinity Coelectrophoresis (ACE). ACE was used to study interactions between peptides and low molecular weight (low Mr) heparin (WO00/45831). In ACE, trace concentrations of radiolabeled heparin are electrophoresed through agarose lanes containing peptides at various concentrations. These analyses are used to determine the dissociation constants (Kd's). The electrophoretic patterns of radiolabeled heparin are then visualized using a phosphorimager, and the dissociation constant (Kd) corresponds to the protein concentration at which the heparin is half shifted from being fully mobile at very low protein concentrations to maximally retarded at saturating protein concentrations. The lower the Kd value, the higher the affinity.
Binding of radiolabeled heparin to peptides was studied by ACE as detailed elsewhere (San Antonio, J. D., et al., Biochemistry, 32:4746-4755, 1993). […] Briefly, peptides were dissolved in 1×ACE running buffer, 50 mM sodium 3-(N-morpholino)-2-hydroxypropanesulfonate (MOPSO, Sigma)/125 mM sodium acetate, pH 7.0, and serially diluted in running buffer at 2× concentrations. Peptides were then mixed 1:1 with 2% agarose/1% CHAPS, 3-[(3-cholamidopropyl)dimethylammonio]-1-propanesulfonate, (Boehringer Mannheim, Indianapolis, Ind.), and loaded into wells of a 1% agarose gel. Radiolabeled heparin was then loaded in a slot on the anode side of the gel, and electrophoresed through the peptide-containing wells, towards the cathode. Gels were dried and PG mobility was measured with a Phosphorimager (Molecular Dynamics, Sunnyvale, Calif.) by scanning each protein lane and determining the relative radioactivity content per 88-μm pixel through the length of the lane. Retardation coefficient (R) measurements, binding isotherm curve fittings, and apparent Kd value determinations were calculated as detailed previously (Lee, M. K., and A. D. Lander, Proc. Natl. Acad. Sci. USA, 88:2768-2772, 1991; San Antonio, J. D., et al, Biochemistry, 32:4746-4755, 1993).
Retardation coefficients (R) for the migration of low Mr 1^25I-tyramine-heparin through peptides were determined from ACE gel electrophoretograms, and are plotted against peptide concentration. Smooth curves represent non-linear least-squares fits to the equation R=R∞/{1+(Kd/[peptide])^n}.

| Compound | Unfractionated Heparin Neutralized ([1]; 1 μg/ml Peptide, A Plasma) | Unfractionated Heparin Neutralized ([1]; 1 μg/ml Peptide, B Plasma) | Unfractionated Heparin Neutralized ([1]; 1 μg/ml Peptide, C Plasma) | Unfractionated Heparin Neutralized ([1]; 1 μg/ml Peptide, Citrate) | Unfractionated Heparin Neutralized ([1]; 6 μg/ml Peptide, A Plasma) | Unfractionated Heparin Neutralized ([1]; 6 μg/ml Peptide, B Plasma) | Unfractionated Heparin Neutralized ([1]; 6 μg/ml Peptide, C Plasma) | Unfractionated Heparin Neutralized ([1]; 6 μg/ml Peptide, Citrate) | Unfractionated Heparin Neutralized ([1]; 12 μg/ml Peptide, A Plasma) | Unfractionated Heparin Neutralized ([1]; 12 μg/ml Peptide, B Plasma) | Unfractionated Heparin Neutralized ([1]; 12 μg/ml Peptide, C Plasma) | Unfractionated Heparin Neutralized ([1]; 12 μg/ml Peptide, Citrate) | Unfractionated Heparin Neutralized ([1]; 60 μg/ml Peptide, A Plasma) | Unfractionated Heparin Neutralized ([1]; 60 μg/ml Peptide, B Plasma) | Unfractionated Heparin Neutralized ([1]; 60 μg/ml Peptide, C Plasma) | Unfractionated Heparin Neutralized ([1]; 60 μg/ml Peptide, Citrate) | Unfractionated Heparin Neutralized ([1]; 120 μg/ml Peptide, A Plasma) | Unfractionated Heparin Neutralized ([1]; 120 μg/ml Peptide, B Plasma) | Unfractionated Heparin Neutralized ([1]; 120 μg/ml Peptide, C Plasma) | Unfractionated Heparin Neutralized ([1]; 120 μg/ml Peptide, Citrate) | other results |
| --- | --- | --- | --- | --- | --- | --- | --- | --- | --- | --- | --- | --- | --- | --- | --- | --- | --- | --- | --- | --- | --- |
| C[C@@H]1NC(=O)[C@H](C)NC(=O)[C@H](CCCCN)NC(=O)[C@H](CCCCN)NC(=O)[C@H](CCCNC(=N)N)NC(=O)[C@H](C)NC(=O)[C@H](C)NC(=O)[C@H](CCCCN)NC(=O)[C@H](C)NC(=O)[C@H](C)NC(=O)[C@H](CCCCN)NC(=O)[C@H](CCCCN)NC(=O)[C@H](CCCNC(=N)N)NC(=O)[C@H](C)NC(=O)[C@@H](N)CSSC[C@@H](C(=O)O)NC(=O)[C@H](C)NC(=O)[C@H](CCCCN)NC(=O)[C@H](C)NC(=O)[C@H](C)NC(=O)[C@H](CCCCN)NC(=O)[C@H](CCCCN)NC(=O)[C@H](CCCNC(=N)N)NC(=O)[C@H](C)NC(=O)[C@H](C)NC(=O)[C@H](CCCCN)NC(=O)[C@H](C)NC(=O)[C@H](C)NC(=O)[C@H](CCCCN)NC(=O)[C@H](CCCCN)NC(=O)[C@H](CCCNC(=N)N)NC(=O)[C@H](C)NC(=O)[C@H](C)NC(=O)[C@H](CCCCN)NC1=O [C(ARKKAAKA)4C, cyclized C(ARKKAAKA)4C] (H-CARKKAAKAARKKAAKAARKKAAKAARKKAAKAC-OH; disulfide 1-34) | 0.157 ± 0.032 U/ml | 0.194 ± 0.066 U/ml | 0.078 ± 0.027 U/ml | 0.131 ± 0.070 U/ml | 0.442 ± 0.031 U/ml | 0.426 ± 0.064 U/ml | 0.447 ± 0.054 U/ml | 0.590 ± 0.024 U/ml | 0.579 ± 0.128 U/ml | 0.552 ± 0.056 U/ml | 0.583 ± 0.066 U/ml | 0.560 ± 0.012 U/ml | 0.605 ± 0.088 U/ml | 0.566 ± 0.036 U/ml | 0.572 ± 0.076 U/ml | 0.560 ± 0.018 U/ml | 0.618 ± 0.051 U/ml | 0.512 ± 0.032 U/ml | 0.580 ± 0.051 U/ml | 0.530 ± 0.019 U/ml | Kd [2]: 38 ± 13 nM |
| ARKKAAKAAAAAAAAAAAAAAAAAARKKAAKA [ARKKAAKA(A16)ARKKAAKA, reference compound] | 0.080 ± 0.050 U/ml | 0.0 U/ml | 0.0 U/ml | 0.040 ± 0.017 U/ml | 0.045 ± 0.029 U/ml | 0.005 ± 0.007 U/ml | 0.008 ± 0.012 U/ml | 0.064 ± 0.020 U/ml | 0.026 ± 0.018 U/ml | 0.008 ± 0.012 U/ml | 0.0 U/ml | 0.047 ± 0.025 U/ml | 0.100 ± 0.021 U/ml | 0.084 ± 0.034 U/ml | 0.022 ± 0.017 U/ml | 0.156 ± 0.046 U/ml | 0.112 ± 0.036 U/ml | 0.084 ± 0.018 U/ml | 0.090 ± 0.019 U/ml | 0.199 ± 0.039 U/ml | effect in the anti-Factor Xa assay for UFH ([1]; in both citrate and plasma): minimal effects; Kd [2]: 8327 ± 60 nM |
| ARKKAAKAARKKAAKAARKKAAKAARKKAAKA [(ARKKAAKA)4] | 0.069 ± 0.023 U/ml | 0.124 ± 0.047 U/ml | 0.076 ± 0.014 U/ml | 0.056 ± 0.019 U/ml | 0.334 ± 0.016 U/ml | 0.361 ± 0.038 U/ml | 0.397 ± 0.004 U/ml | 0.423 ± 0.014 U/ml | 0.412 ± 0.010 U/ml | 0.395 ± 0.012 U/ml | 0.396 ± 0.018 U/ml | 0.370 ± 0.020 U/ml | 0.389 ± 0.018 U/ml | 0.442 ± 0.056 U/ml | 0.401 ± 0.012 U/ml | 0.378 ± 0.023 U/ml | 0.364 ± 0.032 U/ml | 0.392 ± 0.075 U/ml | 0.374 ± 0.020 U/ml | 0.361 ± 0.028 U/ml | affinity for low molecular weight heparin [2]: high heparin affinity; Kd [2]: 55 ± 32 nM |
| ARKKAAKAARKKAAKAARKKAAKAVLVLVL [(ARKKAAKA)3VLVLVL] | 0.249 ± 0.129 U/ml | 0.142 ± 0.040 U/ml | 0.114 ± 0.056 U/ml | 0.150 ± 0.023 U/ml | 0.667 ± 0.019 U/ml | 0.598 ± 0.016 U/ml | 0.572 ± 0.018 U/ml | 0.576 ± 0.060 U/ml | 0.570 ± 0.119 U/ml | 0.585 ± 0.005 U/ml | 0.575 ± 0.013 U/ml | 0.595 ± 0.021 U/ml |  |  |  |  |  |  |  |  | Kd [2]: 44 ± 17 nM |
| Protamine [reference compound] | 0.241 ± 0.026 U/ml | 0.268 ± 0.028 U/ml | 0.161 ± 0.030 U/ml | 0.126 ± 0.042 U/ml | 0.442 ± 0.012 U/ml | 0.423 ± 0.035 U/ml | 0.425 ± 0.012 U/ml | 0.475 ± 0.017 U/ml | 0.466 ± 0.023 U/ml | 0.448 ± 0.041 U/ml | 0.405 ± 0.035 U/ml | 0.429 ± 0.010 U/ml | 0.380 ± 0.037 U/ml | 0.387 ± 0.047 U/ml | 0.350 ± 0.019 U/ml | 0.406 ± 0.023 U/ml | 0.372 ± 0.024 U/ml | 0.374 ± 0.034 U/ml | 0.310 ± 0.024 U/ml | 0.374 ± 0.030 U/ml | anti-Factor Xa activity of UFH neutralized ([1]; 6 μg/ml): about 0.4 U/ml |
